What was measured:
[1] = test system: mice with cyclophosphamide-induced alopecia areata; test: Hair length (vernier caliper) and hair weight (balance) after the final administration; assay type: in vivo; details: gavage once daily, after final administration (Day 28); for Hair length: CP-induced alopecia areata mice; for Hair weight: regrown hair of depilated area
Description: (§1) 60 male C57/BL-6 mice aged 6-8 weeks were evenly divided into 6 groups with 10 mice per group. These groups were: a control group, a model group, a CE (15 mg/kg) group, a CE (30 mg/kg) group, a BT (1 mg/kg) group, and a CE+BT (15+0.5 mg/kg) group. After 1 week of normal feeding, the dorsal hair of the mice was shaved using a depilatory device to prepare the skin (2×3 cm^2). Then, depilatory cream was applied to the prepared skin area to ensure complete removal of the hair on the back of the mice. From the day after depilation, each group of mice was administered once daily by gavage.
(§2) On Day 9 of administration in the aforementioned experiment, cyclophosphamide (abbreviated as CP) was intraperitoneally injected to each mouse in the model group (not administered with CE and/or BT), the CE (15 mg/kg) group, the CE (30 mg/kg) group, the BT (1 mg/kg) group, and the CE+BT (15+0.5 mg/kg) group to establish the AA model. The method for establishing the model is described in the literature: "Effect of CeO2 Nanoenzyme on Hair Growth of Mice with Cyclophosphamide-Induced Alopecia Areata", PENG Xinxin et al., J Shanxi Med Univ, Feb. 2024, Vol. 55, No. 2, p.192.
After the final administration (on Day 28), the length of dorsal hair of the mice in each group was measured using a vernier caliper. Subsequently, the regrown hair in the original depilated area was removed using a depilatory device, and was weighed using a balance. Table 2 Effects of CE, BT and CE+BT on hair length and hair weight in the mice with cyclophosphamide-induced alopecia areata

C57/BL-6 mice = test: Hair growth of depilated mice after 9 days of gavage administration (dorsal images, hair score by IMAGE J); assay type: in vivo; details: first 9 days after depilation
Description: as §1
The substances to be administered were prepared as follows: The aqueous solution of 0.5% sodium carboxymethylcellulose: First, 0.5 g of sodium carboxymethylcellulose powder was added to 100 mL of distilled water, and then the mixture was placed in a water bath and heated at 60-70 °C. […]
Images of the dorsal region of the mice were captured at key time points of hair growth (i.e. Day 0 and Day 9), respectively. In addition, the gray values in the depilated areas on the dorsal region of the mice in Figure a were analyzed using IMAGE J software (National Institutes of Health, USA) to obtain hair scores. In Figure b, the hair scores represent the quantified gray values of the hair on the back skin of the mice.

[2] = test system: mice with cyclophosphamide-induced alopecia areata; test: Preventive effect on hair loss in cyclophosphamide-induced alopecia areata (dorsal images); assay type: in vivo; details: gavage, Day 7 after CP injection, versus model group
Description: as §2
Whether the model has been successfully established was determined by observing the hair loss in each group of mice, wherein the onset of hair loss indicated the successful model establishment.
Images of the dorsal region of the mice were captured on Day 9 of administration (Day 0 after CP injection), Day 14 (Day 5after CP injection), and Day 16 (Day 7 after CP injection). In Figure 2, gavage administration was used for administering CE and/or BT to the mice in the CE (15 mg/kg) group, the CE (30 mg/kg) group, the BT (1 mg/kg) group, and the CE+BT (15+0.5 mg/kg) group; and intraperitoneal injection was used for administering CP to the mice in the model group, the CE (15 mg/kg) group, the CE (30 mg/kg) group, the BT (1 mg/kg) group, and the CE+BT (15+0.5 mg/kg) group. […]

[3] = test system: JAK3/STAT3 signaling pathway; test: Western blotting of p-JAK3/JAK3 and p-STAT3/STAT3 in mouse skin tissue; assay type: in vivo, mice; details: Western blot gray values, versus model group
Description: The expression levels of p-JAK3/JAK3 and p-STAT3/STAT3 proteins were detected by Western blotting using the half of the skin samples that were stored in the freezer at -80°C as described in Example 2. • p-JAK3: purchased from Absin, Cat No.: abs139988; • JAK3: purchased from Absin, Cat No.: abs115170; • p-STAT3: purchased from Absin, Cat No.: abs130919; • STAT3: purchased from Absin, Cat No.: abs155916.
The mouse skin samples stored at -80°C were taken out. 50 mg of skin tissue was cut with surgical scissors from each sample and respectively placed into 2 mL EP tubes. 500 µL of RIPA lysis buffer (available from Servicebio, Cat No.: G2002-100ML) (containing 5µL of protease inhibitor PMSF, available from Servicebio, Cat No.: G2008-1ML) was added to each EP tube. The skin was then disrupted by a cell grinding rod that is inserted into the 2 mL EP tube. […]
The total protein concentration in the supernatant was determined using a BCA kit (G2026-200T, Servicebio) following the protocol in the instruction manual. […]
The previously prepared resolving gel and stacking gel were clamped onto the main body of the gel-casting apparatus, with the stacking gel on the top and the resolving gel on the bottom. […] The gel casting apparatus was then disassembled and placed in the transfer buffer (Cat No.: G2028-1L, available from Servicebio) to be ready for subsequent membrane transfer procedure. […]

CCS(=O)(=O)N1CC(CC#N)(n2cc(-c3ncnc4[nH]ccc34)cn2)C1 [BT, baricitinib]
Hair length ([1]; BT 1 mg/kg): 6.51±0.61 mm
Hair weight ([1]; BT 1 mg/kg): 38.62 ± 6.02 mg

C[C@@H]1CC[C@H]2C(C)(C)[C@H]3C[C@@]12CC[C@@]3(C)O [CE, cedrol]
hair growth (C57/BL-6 mice; CE 15 mg/kg): significant hair growth
hair growth (C57/BL-6 mice; CE 30 mg/kg): significant hair growth
hair loss ([2]; CE 15 mg/kg): significantly better than that of the model group
hair loss ([2]; CE 30 mg/kg): significantly better than that of the model group
Hair length ([1]; CE 15 mg/kg): 5.98±1.22 mm
Hair weight ([1]; CE 15 mg/kg): 35.38 ± 6.88 mg
Hair length ([1]; CE 30 mg/kg): 6.78±1.32 mm
Hair weight ([1]; CE 30 mg/kg): 43.51 ± 6.45 mg
relative viabilities of p-JAK3/JAK3 and p-STAT3/STAT3 ([3]; CE 15 mg/kg): significantly different from that in the model group
relative viabilities of p-JAK3/JAK3 and p-STAT3/STAT3 ([3]; CE 30 mg/kg): significantly different from that in the model group

Reference: EP4799617A1, “PHARMACEUTICAL COMPOSITION HAVING JAK INHIBITORY EFFECT” (Orxes Chinese Medicine (Shanghai) Co., Ltd., priority 2024, dated 2025)
